Assays:
Type in all cases: physicochemical
[1] = Emission spectra of pure dyes (Table II); conditions: pure dye isomer 2, room temperature; for λmax Em: 1×TBE buffer pH 8.4, absorbance 0.05 at λmax Abs; for Width at Half Height: emission spectrum in 1×TBE buffer pH 8.4
[2] = Relative brightness at λmax Em with 514 nm excitation; conditions: pure dye isomer 2, approximately equal concentrations (λmax Abs=0.05)
Protocol: (§1) See FIGS. 1 and 2 for the structures of the dyes referred to in the table. All data are reported for pure dye isomer 2. All emission spectra were recorded in 1×TBE buffer at pH 8.4 in dye solutions having an absorbance of 0.05 at λmax Abs (ca. 1×10^-6 M) at room temperature. Photodecomposition rate was determined for equal volumes of the dyes at initially 1 absorption unit at λmax Abs and run in pairs at equal volumes under equal high intensity white light irradiation at 35° C. in 1×TBE buffer pH 8.4. […] (λmax Abs=0.05).

[3] = Stability in concentrated NH4OH at 60° C.; conditions: pure dye isomer 2, concentrated ammonia hydroxide, sealed vials, first order fit
Protocol: as §1

[4] = Photodecomposition under high intensity white light; conditions: pure dye isomer 2, 35° C., 1×TBE buffer pH 8.4, from t1/2 for loss of dye
Protocol: as §1

| Relative Photostability [4] | Substance | λmax Em [1] [nm] | Width at Half Height [1] [nm] | Relative Brightness [2] | Stability in NH4OH - t1/2 [3] [h] |
| --- | --- | --- | --- | --- | --- |
| – | TAMRA | 577 | 39 | 0.9 | 1.3 |
| 17 | 6-carboxy-4,7,2',4',5',7',-hexachlorofluorescein | 550 | 32 | 2.4 | 11 |

From US5840999A, “Asymmetric benzoxanthene dyes” (The Perkin-Elmer Corporation, priority 1997, dated 1998)
